Data: publication PMC6540076 (Drug Design, Development and Therapy, 2019)
Marks after values point to notes of the source that are not given here.

Assays:
[1] = system: carrageenan-induced paw edema; assay: Carrageenan-induced rat-paw-edema assay; assay type: in vivo, rats; settings: for Potency (%): calculated compared to the reference drug naproxen; for Edema (%): compounds 5 mg/kg orally, naproxen 2.5 mg/kg orally, in DMSO, mean ± SE of six rats
tail-withdrawal latency = assay: Tail-flick latency test; assay type: in vivo, rats; settings: for Latency / Latency (seconds): compounds 5 mg/kg orally, naproxen 2.5 mg/kg orally, in DMSO, mean ± SE of six rats; for Potency (%): analgesic potency after 120 minutes compared with the reference drug naproxen
tumor-bearing rats = settings: cited from earlier work
gastric ulceration = settings: naproxen 2.5 mg/kg orally, tested compounds 5 mg/g orally in DMSO
[2] = after 1 hour of induced inflammation
[3] = throughout the entire experiment

SMILES	Potency (%) ([1]; 1 hour)	Edema (%) ([1]; 1 hour)	Potency (%) ([1]; 2 hours)	Edema (%) ([1]; 2 hours)	Potency (%) ([1]; 3 hours)	Edema (%) ([1]; 3 hours)	Potency (%) ([1]; 4 hours)	Edema (%) ([1]; 4 hours)	anti-inflammatory potency (in words) ([1]; after 2, 3, and 4 hours of induced inflammation, compared to the reference drug)	anti-inflammatory activity (in words) [1, 2]	Latency (tail-withdrawal latency; 30 minutes) [s]	Latency (seconds) (tail-withdrawal latency; 60 minutes)	Latency (seconds) (tail-withdrawal latency; 120 minutes)	Potency (%) (tail-withdrawal latency)	anti-inflammatory potency relative to the reference drug ([1]; compared to naproxen)	anti-inflammatory activity relative to naproxen ([1]; entire experiment, after 4 hours) [times]	anti-inflammatory activity (in words) [1, 3]	Latency (seconds) (tail-withdrawal latency; 30 minutes)	reduction of rate of tumor growth (tumor-bearing rats) [%]	ulcerogenic effect, macroscopic examination of the stomach (gastric ulceration)
COc1ccc2cc(C(C)C(=O)NC(=S)NC(CO)C(=O)NN)ccc2c1 (centres unmarked) [Compound 15, N-(1-hydrazinyl-3-hydroxy–1-oxopropan-2-yl-carbamothioyl)-2-(6-methoxynaphthalen-2-yl)propanamide]	120.0	19.5±0.50	96.8	23.2±2.05	88.2	30.1±2.58	80.5	31.0±1.68	moderate potency	highest anti-inflammatory activity	4.2 ± 0.4	3.9±0.2^b seconds	4.5±0.3^b seconds	64.3						
COc1ccc2cc(C(C)C(=O)NC(=S)NC(Cc3ccc(O)cc3)C(=O)O)ccc2c1 (centres unmarked) [Compound 8, 3-(4-hydroxyphenyl)-2-(3-(2-(6-methoxynaphthalen-2-yl)propanoyl)thioureido)propanoic acid]	138.4	17.6±1.55	111.4	19.9±1.50	129.2	21.5±1.42	131.2	20.0±2.02		highest anti-inflammatory activity		4.9±0.3^a,b seconds	5.9±0.5^a seconds	84.3	about 1.4 times	1.3	highest anti-inflammatory activity	5.0±0.2^a seconds		
COc1ccc2cc(C(C)C(=O)NC(=S)NCCC(=O)O)ccc2c1 (centres unmarked) [Compound 6, 3-(3-(2-(6-methoxynaphthalen-2-yl)propanoyl)thioureido)propanoic acid]	67.6	24.6±2.39	60.0	31.4±2.46	64.4	35.1±2.99	60.3	35.3±3.06		moderate potency	4.6 ± 0.3	4.0±0.2^b seconds	4.2±0.3^b seconds	60.0						
COC(=O)CCNC(=S)NC(=O)C(C)c1ccc2cc(OC)ccc2c1 (centres unmarked) [Compound 10, Methyl 3-(3-(2-(6-methoxynaphthalen-2-yl)propanoyl)thioureido)propanoate]	6.3	30.7±2.38	9.8	42.6±2.45	10.4	46.4±2.61	15.9	44.9±3.34				4.6±0.4^b seconds	5.7±0.2^a,b seconds	81.4				3.1±0.3^b seconds		
COc1ccc2cc(C(C)C(=O)NC(=S)NC(C)C(=O)O)ccc2c1 (centres unmarked) [Compound 5, 2-(3-(2-(6-methoxynaphthalen-2-yl)propanoyl)thioureido)propanoic acid]	102.5	21.2±1.66	64.6	30.4±1.19	71.1	33.7±1.68	71.7	32.8±1.40		highest anti-inflammatory activity		3.9±0.4^b seconds	3.9±0.2^b seconds	55.7				3.9±0.3^b seconds		
COc1ccc2cc(C(C)C(=O)NC(=S)NC(CO)C(=O)O)ccc2c1 (centres unmarked) [Compound 7, 3-hydroxy-2-(3-(2-(6-methoxynaphthalen-2-yl)propanoyl)thioureido)propanoic acid]	73.9	24.0±1.90	73.3	28.4±0.78	89.8	29.7±0.95	85.2	30.0±0.95		moderate potency		3.6±0.3^b seconds	4.1±0.2^b seconds	58.6				3.9±0.4^b seconds		
COc1ccc2cc([C@H](C)C(=O)O)ccc2c1 [Naproxen, reference compound]	100	21.5±2.03	100	22.5±1.22	100	27.6±0.85	100	26.7±1.90				6.2±0.4^a seconds	7.0±0.4^a seconds	100				5.3±0.3^a seconds	58	moderate gastric ulceration
COc1ccc2cc(C(C)C(=O)NC(=S)NCCC(=O)NN)ccc2c1 (centres unmarked) [Compound 14, N-(3-hydrazinyl-3-oxopropylcarbamothioyl)-2-(6-methoxynaphthalen-2-yl)propanamide]	40.3	27.3±0.88	32.9	37.4±3.58	44.9	39.2±2.42	26.5	42.6±1.61			6.1 ± 0.4	5.6±0.2^a seconds	5.7±0.3^a,b seconds	81.4			lowest anti-inflammatory potency	6.1±0.4^a seconds		
COC(=O)C(C)NC(=S)NC(=O)C(C)c1ccc2cc(OC)ccc2c1 (centres unmarked) [Compound 9, Methyl 2-(3-(2-(6-methoxynaphthalen-2-yl)propanoyl)thioureido)propanoate]	4.7	30.8±1.09	11.6	42.2±3.50	21.1	44.2±3.94	32.3	41.3±2.99				3.8±0.3^b seconds	4.0±0.3^b seconds	57.1				3.7±0.2^b seconds		
COC(=O)C(CO)NC(=S)NC(=O)C(C)c1ccc2cc(OC)ccc2c1 (centres unmarked) [Compound 11, Methyl 3-hydroxy-2-(3-(2-(6-methoxynaphthalen-2-yl)propanoyl)thioureido)propanoate]	66.7	24.7±1.79	62.2	30.9±2.05	32.5	41.8±2.81	32.1	41.4±2.59		moderate potency		4.8±0.4^b seconds	4.8±0.2^a,b seconds	68.6				4.8±0.5^a seconds		
